Source: US20230257396A1, “MACROCYCLES AND THEIR USE” (BLOSSOMHILL THERAPEUTICS, INC., priority 2020, published 2023)

Experiments:
Test in all cases: KINOMEscan kinase binding assay (Eurofins/DiscoveRx), % Ctrl
kinases [1] = biological target: T1, kinases (Homo sapiens, UniProt P00519, M351T)
T1 construct: purchased Eurofins/DiscoveRx; host or cells: E. coli BL21-derived host (T7 phage display) for most kinases; HEK-293 for the rest
Procedure, shortened: (§1)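 Read-out is qPCR of kinase eluted from ligand-coated streptavidin beads after 1 h room-temperature competition with test compound. Values are % Ctrl at the tested concentration, lower meaning tighter binding.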

kinases [2] = biological target: T2, kinases (Homo sapiens, UniProt P00519)
T2 construct: purchased Eurofins/DiscoveRx; host or cells: E. coli BL21-derived host (T7 phage display) for most kinases; HEK-293 for the rest
Procedure, shortened: as §1

kinases [3] = biological target: T3, kinases (Homo sapiens, UniProt P10721, L576P)
T3 construct: purchased Eurofins/DiscoveRx; host or cells: E. coli BL21-derived host (T7 phage display) for most kinases; HEK-293 for the rest
Procedure, shortened: as §1

kinases [4] = biological target: T4, kinases (Homo sapiens, UniProt P07949)
T4 construct: purchased Eurofins/DiscoveRx; host or cells: E. coli BL21-derived host (T7 phage display) for most kinases; HEK-293 for the rest
Procedure, shortened: as §1

kinases [5] = biological target: T5, kinases (Homo sapiens, UniProt P00533, G719C)
T5 construct: purchased Eurofins/DiscoveRx; host or cells: E. coli BL21-derived host (T7 phage display) for most kinases; HEK-293 for the rest
Procedure, shortened: as §1

kinases [6] = biological target: T6, kinases (Homo sapiens, UniProt P07949, V804L)
T6 construct: purchased Eurofins/DiscoveRx; host or cells: E. coli BL21-derived host (T7 phage display) for most kinases; HEK-293 for the rest
Procedure, shortened: as §1

kinases [7] = biological target: T7, kinases (Homo sapiens, UniProt P00533, DEL752-759)
T7 construct: purchased Eurofins/DiscoveRx; host or cells: E. coli BL21-derived host (T7 phage display) for most kinases; HEK-293 for the rest
Procedure, shortened: as §1

kinases [8] = biological target: T8, kinases (Homo sapiens, UniProt P07949, M918T)
T8 construct: purchased Eurofins/DiscoveRx; host or cells: E. coli BL21-derived host (T7 phage display) for most kinases; HEK-293 for the rest
Procedure, shortened: as §1

kinases [9] = biological target: T9, kinases (Homo sapiens, UniProt P00519, H396P)
T9 construct: purchased Eurofins/DiscoveRx; host or cells: E. coli BL21-derived host (T7 phage display) for most kinases; HEK-293 for the rest
Procedure, shortened: as §1

kinases [10] = biological target: T10, kinases (Homo sapiens, UniProt P10721, V559D/V654A)
T10 construct: purchased Eurofins/DiscoveRx; host or cells: E. coli BL21-derived host (T7 phage display) for most kinases; HEK-293 for the rest
Procedure, shortened: as §1

kinases [11] = biological target: T11, kinases (Homo sapiens, UniProt P00533, T790M)
T11 construct: purchased Eurofins/DiscoveRx; host or cells: E. coli BL21-derived host (T7 phage display) for most kinases; HEK-293 for the rest
Procedure, shortened: as §1

kinases [12] = biological target: T12, kinases (Homo sapiens, UniProt P09619)
T12 construct: purchased Eurofins/DiscoveRx; host or cells: E. coli BL21-derived host (T7 phage display) for most kinases; HEK-293 for the rest
Procedure, shortened: as §1

kinases [13] = biological target: T13, kinases (Homo sapiens, UniProt P00519, Y253F)
T13 construct: purchased Eurofins/DiscoveRx; host or cells: E. coli BL21-derived host (T7 phage display) for most kinases; HEK-293 for the rest
Procedure, shortened: as §1

kinases [14] = biological target: T14, kinases (Homo sapiens, UniProt P36888)
T14 construct: purchased Eurofins/DiscoveRx; host or cells: E. coli BL21-derived host (T7 phage display) for most kinases; HEK-293 for the rest
T14 sequence (P36888 27-993): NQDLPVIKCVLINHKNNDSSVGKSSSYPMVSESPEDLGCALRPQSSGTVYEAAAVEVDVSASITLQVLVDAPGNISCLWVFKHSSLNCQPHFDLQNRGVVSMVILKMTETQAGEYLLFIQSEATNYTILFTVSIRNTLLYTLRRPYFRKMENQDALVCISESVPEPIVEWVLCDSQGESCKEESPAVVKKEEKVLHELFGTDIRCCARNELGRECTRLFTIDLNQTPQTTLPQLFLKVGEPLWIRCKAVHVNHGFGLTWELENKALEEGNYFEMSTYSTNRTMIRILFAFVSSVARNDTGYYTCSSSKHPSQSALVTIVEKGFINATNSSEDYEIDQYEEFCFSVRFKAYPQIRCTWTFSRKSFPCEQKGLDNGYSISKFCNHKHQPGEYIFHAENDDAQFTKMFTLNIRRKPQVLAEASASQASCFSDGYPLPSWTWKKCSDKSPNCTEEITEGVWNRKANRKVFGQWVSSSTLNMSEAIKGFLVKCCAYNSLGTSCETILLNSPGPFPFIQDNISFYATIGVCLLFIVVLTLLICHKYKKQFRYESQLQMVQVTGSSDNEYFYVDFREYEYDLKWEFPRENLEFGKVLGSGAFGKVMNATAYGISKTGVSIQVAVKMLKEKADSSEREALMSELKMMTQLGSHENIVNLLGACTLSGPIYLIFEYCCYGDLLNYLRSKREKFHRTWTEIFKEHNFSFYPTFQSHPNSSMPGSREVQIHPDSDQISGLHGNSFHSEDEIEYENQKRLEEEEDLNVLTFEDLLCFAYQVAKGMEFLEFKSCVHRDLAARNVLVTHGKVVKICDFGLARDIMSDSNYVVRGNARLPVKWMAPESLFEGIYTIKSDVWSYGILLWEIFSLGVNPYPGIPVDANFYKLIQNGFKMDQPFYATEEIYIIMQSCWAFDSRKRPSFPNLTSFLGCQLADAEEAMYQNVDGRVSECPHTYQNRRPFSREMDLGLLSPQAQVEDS
Procedure, shortened: as §1

[15] = 1 μM; ABL1(M351T)-phosphorylated
[16] = 1 μM; ABL1(H396P)-nonphosphorylated
[17] = 1 μM; ABL1(H396P)-phosphorylated
[18] = 1 μM; ABL1(Y253F)-phosphorylated

T10 sequence (P10721 26-976 V559D/V654A): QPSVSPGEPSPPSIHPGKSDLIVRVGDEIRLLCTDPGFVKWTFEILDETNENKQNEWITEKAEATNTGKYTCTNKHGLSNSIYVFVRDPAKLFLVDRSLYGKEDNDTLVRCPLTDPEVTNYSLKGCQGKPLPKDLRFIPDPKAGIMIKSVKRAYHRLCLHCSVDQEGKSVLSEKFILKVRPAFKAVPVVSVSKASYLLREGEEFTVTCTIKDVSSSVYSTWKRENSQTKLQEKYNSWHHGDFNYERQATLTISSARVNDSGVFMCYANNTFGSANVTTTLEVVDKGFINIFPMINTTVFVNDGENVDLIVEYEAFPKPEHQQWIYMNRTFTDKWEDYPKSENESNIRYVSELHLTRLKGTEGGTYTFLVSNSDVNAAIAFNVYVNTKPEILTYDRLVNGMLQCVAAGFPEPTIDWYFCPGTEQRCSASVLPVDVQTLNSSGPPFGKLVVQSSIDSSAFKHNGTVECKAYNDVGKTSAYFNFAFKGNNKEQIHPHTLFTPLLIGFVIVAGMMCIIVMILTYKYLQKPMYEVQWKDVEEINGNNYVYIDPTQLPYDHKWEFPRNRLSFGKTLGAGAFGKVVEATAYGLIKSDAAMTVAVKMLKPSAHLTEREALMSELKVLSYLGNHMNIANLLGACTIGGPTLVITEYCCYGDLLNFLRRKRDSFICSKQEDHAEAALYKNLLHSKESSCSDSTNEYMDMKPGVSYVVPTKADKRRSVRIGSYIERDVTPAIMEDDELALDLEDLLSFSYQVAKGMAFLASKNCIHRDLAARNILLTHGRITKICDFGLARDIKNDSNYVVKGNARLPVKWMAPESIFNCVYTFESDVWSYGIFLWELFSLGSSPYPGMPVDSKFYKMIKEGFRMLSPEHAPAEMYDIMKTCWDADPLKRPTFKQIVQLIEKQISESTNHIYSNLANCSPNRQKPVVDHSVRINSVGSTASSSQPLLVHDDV
T6 sequence (P07949 29-1114 V804L): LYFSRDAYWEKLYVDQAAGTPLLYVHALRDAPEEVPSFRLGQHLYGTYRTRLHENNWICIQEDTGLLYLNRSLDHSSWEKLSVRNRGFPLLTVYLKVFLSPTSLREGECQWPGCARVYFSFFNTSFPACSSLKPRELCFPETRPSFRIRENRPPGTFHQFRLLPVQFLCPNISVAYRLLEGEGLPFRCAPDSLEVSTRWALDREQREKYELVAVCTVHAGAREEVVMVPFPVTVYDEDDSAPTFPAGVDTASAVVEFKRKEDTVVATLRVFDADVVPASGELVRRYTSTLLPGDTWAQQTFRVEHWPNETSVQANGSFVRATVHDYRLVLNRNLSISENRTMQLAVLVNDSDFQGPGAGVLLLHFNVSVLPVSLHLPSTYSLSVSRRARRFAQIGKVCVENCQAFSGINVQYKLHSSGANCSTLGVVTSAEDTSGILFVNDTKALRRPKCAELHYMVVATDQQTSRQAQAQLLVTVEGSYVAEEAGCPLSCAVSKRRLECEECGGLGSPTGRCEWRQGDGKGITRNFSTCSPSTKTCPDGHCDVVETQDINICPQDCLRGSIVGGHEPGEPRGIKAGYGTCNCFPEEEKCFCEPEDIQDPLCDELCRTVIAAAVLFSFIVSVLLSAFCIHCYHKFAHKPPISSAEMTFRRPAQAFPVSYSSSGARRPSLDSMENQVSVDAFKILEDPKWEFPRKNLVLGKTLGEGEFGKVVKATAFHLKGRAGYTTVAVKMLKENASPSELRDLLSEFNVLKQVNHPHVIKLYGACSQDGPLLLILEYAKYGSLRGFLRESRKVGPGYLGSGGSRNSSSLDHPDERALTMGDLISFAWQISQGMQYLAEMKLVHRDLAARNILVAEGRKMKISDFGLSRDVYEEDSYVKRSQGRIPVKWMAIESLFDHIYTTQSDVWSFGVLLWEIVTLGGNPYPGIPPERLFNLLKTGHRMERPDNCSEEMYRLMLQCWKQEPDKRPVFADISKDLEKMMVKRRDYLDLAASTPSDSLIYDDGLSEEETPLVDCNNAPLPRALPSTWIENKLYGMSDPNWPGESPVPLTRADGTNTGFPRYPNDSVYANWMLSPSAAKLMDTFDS
T4 sequence (P07949 29-1114): as the sequence (P07949 29-1114 V804L) above, with L776V counted along it
T8 sequence (P07949 29-1114 M918T): as the sequence (P07949 29-1114 V804L) above, with L776V, M890T counted along it
T12 sequence (P09619 33-1106): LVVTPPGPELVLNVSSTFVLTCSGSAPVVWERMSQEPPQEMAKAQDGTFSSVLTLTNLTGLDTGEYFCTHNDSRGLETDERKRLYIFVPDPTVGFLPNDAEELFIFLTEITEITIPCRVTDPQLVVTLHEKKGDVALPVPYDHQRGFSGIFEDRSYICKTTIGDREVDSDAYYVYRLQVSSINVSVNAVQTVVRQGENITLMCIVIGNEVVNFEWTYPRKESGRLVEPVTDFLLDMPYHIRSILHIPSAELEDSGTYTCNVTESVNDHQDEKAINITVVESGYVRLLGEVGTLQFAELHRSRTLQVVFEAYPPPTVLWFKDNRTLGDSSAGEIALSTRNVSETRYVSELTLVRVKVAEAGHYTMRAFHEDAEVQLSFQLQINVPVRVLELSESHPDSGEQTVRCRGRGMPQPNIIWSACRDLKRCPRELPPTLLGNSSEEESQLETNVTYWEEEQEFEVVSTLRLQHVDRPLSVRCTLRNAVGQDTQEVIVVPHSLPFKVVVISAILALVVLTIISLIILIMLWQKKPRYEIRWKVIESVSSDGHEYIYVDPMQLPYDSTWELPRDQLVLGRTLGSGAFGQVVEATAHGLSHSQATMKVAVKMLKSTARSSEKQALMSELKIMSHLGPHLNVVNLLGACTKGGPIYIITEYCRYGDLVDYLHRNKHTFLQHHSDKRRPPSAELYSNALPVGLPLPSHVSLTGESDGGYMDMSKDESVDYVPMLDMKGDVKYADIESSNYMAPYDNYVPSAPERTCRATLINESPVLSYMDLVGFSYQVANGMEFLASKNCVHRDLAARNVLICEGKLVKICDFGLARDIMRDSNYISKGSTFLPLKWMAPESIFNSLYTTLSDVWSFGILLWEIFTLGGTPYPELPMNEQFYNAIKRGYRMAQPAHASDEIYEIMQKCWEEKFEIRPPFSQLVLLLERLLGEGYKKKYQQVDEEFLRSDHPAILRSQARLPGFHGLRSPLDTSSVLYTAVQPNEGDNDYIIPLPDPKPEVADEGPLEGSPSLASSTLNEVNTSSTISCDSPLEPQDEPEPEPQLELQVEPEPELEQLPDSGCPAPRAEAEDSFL
T3 sequence (P10721 26-976 L576P): as the sequence (P10721 26-976 V559D/V654A) above, with D534V, L551P, A629V counted along it

SMILES | % Ctrl, ABL1(M351T)-phosphorylated (kinases [1]; [15]) | % Ctrl, ABL1-nonphosphorylated (kinases [2]; 1 μM; ABL1-nonphosphorylated) | % Ctrl, ABL1-phosphorylated (kinases [2]; 1 μM; ABL1-phosphorylated) | % Ctrl, KIT(L576P) (kinases [3]; 1 μM; KIT(L576P)) | % Ctrl, RET (kinases [4]; 1 μM; RET) | % Ctrl, EGFR(G719C) (kinases [5]; 1 μM; EGFR(G719C)) | % Ctrl, RET(V804L) (kinases [6]; 1 μM; RET(V804L)) | % Ctrl, EGFR(S752-I759del) (kinases [7]; 1 μM; EGFR(S752-I759del)) | % Ctrl, RET(M918T) (kinases [8]; 1 μM; RET(M918T)) | % Ctrl, ABL1(H396P)-nonphosphorylated (kinases [9]; [16]) | % Ctrl, ABL1(H396P)-phosphorylated (kinases [9]; [17]) | % Ctrl, KIT(V559D, V654A) (kinases [10]; 1 μM; KIT(V559D, V654A)) | % Ctrl, EGFR(T790M) (kinases [11]; 1 μM; EGFR(T790M)) | % Ctrl, PDGFRB (kinases [12]; 1 μM; PDGFRB) | % Ctrl, ABL1(Y253F)-phosphorylated (kinases [13]; [18]) | % Ctrl, FLT3 (kinases [14]; 1 μM; FLT3) | % Ctrl, FLT3-autoinhibited (kinases [14]; 1 μM; FLT3-autoinhibited) | other results
Cc1cc2c([nH]1)/C=C1\C(=O)Nc3cc(Cl)c(cc31)OCCO[C@@H](C(=O)NC1CCNCC1)CN(C)C2=O [Ex. 134, [7R,16a(17)Z]-19-chloro-2,5-dimethyl-4,16-dioxo-N-(piperidin-4-yl)-4,5,6,7,9,10,15,16-octahydro-1H-12,14-(ethaneidylidene)dipyrrolo[3,2-i:3′,4′-l][1,4,7]dioxazacyclopentadecine-7-carboxamide] | 25 % Ctrl | 46 % Ctrl | 38 % Ctrl | 5.1 % Ctrl | 27 % Ctrl | 89 % Ctrl | 55 % Ctrl | 88 % Ctrl | 32 % Ctrl | 25 % Ctrl | 35 % Ctrl | 64 % Ctrl | 92 % Ctrl | 66 % Ctrl | 32 % Ctrl | 48 % Ctrl | 95 % Ctrl | –
Cc1cc2c([nH]1)/C=C1\C(=O)Nc3cc(Cl)c(cc31)OCCO[C@@H](C(=O)NC1CNC1)CN(C)C2=O [Ex. 133, [7R,16a(17)Z]-N-(azetidin-3-yl)-19-chloro-2,5-dimethyl-4,16-dioxo-4,5,6,7,9,10,15,16-octahydro-1H-12,14-(ethanediylidene)dipyrrolo[3,2-i:3′,4′-l][1,4,7]dioxazacyclopentadecine-7-carboxamide] | 58 % Ctrl | 65 % Ctrl | 68 % Ctrl | 8.7 % Ctrl | 24 % Ctrl | 92 % Ctrl | 58 % Ctrl | 90 % Ctrl | 26 % Ctrl | 49 % Ctrl | 67 % Ctrl | 83 % Ctrl | 98 % Ctrl | 60 % Ctrl | 57 % Ctrl | 48 % Ctrl | 95 % Ctrl | –
Cc1cc2c([nH]1)/C=C1\C(=O)Nc3ccc(cc31)-c1cnn(C)c1OCCCN(C)C2=O [Ex. 166, [3a(4)Z]-9,14-dimethyl-9,10,11,12-tetrahydro-14H-1,17-(ethanediylidene)pyrazolo[4,3-n]dipyrrolo[3,2-g:3′,4′-j][1,5]oxazacyclopentadecine-3,8(2H,5H)-dione] | – | – | – | – | – | – | – | – | – | – | – | – | – | – | – | – | – | % Ctrl, ABL1(M351T)-phosphorylated (kinases [1]; 1 μM; target ABL1(M351T)-phosphorylated): 3.1 % Ctrl; % Ctrl, ABL1-nonphosphorylated (kinases [2]; 1 μM; target ABL1-nonphosphorylated): 4.1 % Ctrl; % Ctrl, ABL1-phosphorylated (kinases [2]; 1 μM; target ABL1-phosphorylated): 3.6 % Ctrl; % Ctrl, KIT(L576P) (kinases [3]; 1 μM; target KIT(L576P)): 34 % Ctrl; % Ctrl, RET (kinases [4]; 1 μM; target RET): 7.1 % Ctrl; % Ctrl, EGFR(G719C) (kinases [5]; 1 μM; target EGFR(G719C)): 98 % Ctrl; % Ctrl, RET(V804L) (kinases [6]; 1 μM; target RET(V804L)): 0.3 % Ctrl; % Ctrl, EGFR(S752-I759del) (kinases [7]; 1 μM; target EGFR(S752-I759del)): 93 % Ctrl; % Ctrl, RET(M918T) (kinases [8]; 1 μM; target RET(M918T)): 2.9 % Ctrl; % Ctrl, ABL1(H396P)-nonphosphorylated (kinases [9]; 1 μM; target ABL1(H396P)-nonphosphorylated): 0.7 % Ctrl; % Ctrl, ABL1(H396P)-phosphorylated (kinases [9]; 1 μM; target ABL1(H396P)-phosphorylated): 4.3 % Ctrl; % Ctrl, KIT(V559D, V654A) (kinases [10]; 1 μM; target KIT(V559D, V654A)): 43 % Ctrl; % Ctrl, EGFR(T790M) (kinases [11]; 1 μM; target EGFR(T790M)): 26 % Ctrl; % Ctrl, PDGFRB (kinases [12]; 1 μM; target PDGFRB): 16 % Ctrl; % Ctrl, ABL1(Y253F)-phosphorylated (kinases [13]; 1 μM; target ABL1(Y253F)-phosphorylated): 11 % Ctrl; % Ctrl, FLT3 (kinases [14]; 1 μM; target FLT3): 4.2 % Ctrl; % Ctrl, FLT3-autoinhibited (kinases [14]; 1 μM; target FLT3-autoinhibited): 2 % Ctrl
Cc1cc2c([nH]1)/C=C1\C(=O)Nc3ccc(cc31)-c1c(C)nn(C)c1COCCN(C)C2=O [Ex. 146, [3a(4)Z]-6,9,14,16-tetramethyl-10,11,13,14-tetrahydro-2H-1,17-(ethanediylidene)pyrazolo[4,3-m]dipyrrolo[3,2-f:3′,4′-i][1,4]oxazacyclopentadecine-3,8(5H,9H)-dione] | – | – | – | – | – | – | – | – | – | – | – | – | – | – | – | – | – | % Ctrl, ABL1(M351T)-phosphorylated (kinases [1]; target ABL1(M351T)-phosphorylated; 1 μM): 67 % Ctrl; % Ctrl, ABL1-nonphosphorylated (kinases [2]; target ABL1-nonphosphorylated; 1 μM): 64 % Ctrl; % Ctrl, ABL1-phosphorylated (kinases [2]; target ABL1-phosphorylated; 1 μM): 100 % Ctrl; % Ctrl, KIT(L576P) (kinases [3]; target KIT(L576P); 1 μM): 90 % Ctrl; % Ctrl, RET (kinases [4]; target RET; 1 μM): 45 % Ctrl; % Ctrl, EGFR(G719C) (kinases [5]; target EGFR(G719C); 1 μM): 89 % Ctrl; % Ctrl, RET(V804L) (kinases [6]; target RET(V804L); 1 μM): 3 % Ctrl; % Ctrl, EGFR(S752-I759del) (kinases [7]; target EGFR(S752-I759del); 1 μM): 83 % Ctrl; % Ctrl, RET(M918T) (kinases [8]; target RET(M918T); 1 μM): 27 % Ctrl; % Ctrl, ABL1(H396P)-nonphosphorylated (kinases [9]; target ABL1(H396P)-nonphosphorylated; 1 μM): 50 % Ctrl; % Ctrl, ABL1(H396P)-phosphorylated (kinases [9]; target ABL1(H396P)-phosphorylated; 1 μM): 80 % Ctrl; % Ctrl, KIT(V559D, V654A) (kinases [10]; target KIT(V559D, V654A); 1 μM): 97 % Ctrl; % Ctrl, EGFR(T790M) (kinases [11]; target EGFR(T790M); 1 μM): 57 % Ctrl; % Ctrl, PDGFRB (kinases [12]; target PDGFRB; 1 μM): 96 % Ctrl; % Ctrl, ABL1(Y253F)-phosphorylated (kinases [13]; target ABL1(Y253F)-phosphorylated; 1 μM): 89 % Ctrl; % Ctrl, FLT3-autoinhibited (kinases [14]; target FLT3-autoinhibited; 1 μM): 100 % Ctrl; % Ctrl, FLT3 (kinases [14]; target FLT3; 1 μM): 24 % Ctrl
